Measurements published in ChEMBL document CHEMBL5038660, “Computational and Structure-Based Development of High Potent Cell-Active Covalent Inhibitor Targeting the Peptidyl-Prolyl Isomerase NIMA-Interacting-1 (Pin1)” (J Med Chem, 2022).
Blank lines part the entries; values can stand above or below the compound they belong to. Active and inactive are the calls of the source. No cut-off for these calls is given here.

Experiments:
[1] = target: T1, Peptidyl-prolyl cis-trans isomerase NIMA-interacting 1 (Homo sapiens, UniProt Q13526); assay: Ratio of test compound IC50 to ZL-Pin01 IC50 for N-terminal-GST-fused human Pin1 expressed in Escherichia coli BL21(DE3) by fluorescence polarization assay
[2] = target: T1, Peptidyl-prolyl cis-trans isomerase NIMA-interacting 1; assay: Displacement of 5-FITC-(Acp)-Bth-D-pThr-Pip-2-NaI-Q from N-terminal-GST-fused human Pin1 expressed in Escherichia coli BL21(DE3) incubated for 12 hrs by fluorescence polarization assay
[3] = target: T1, Peptidyl-prolyl cis-trans isomerase NIMA-interacting 1; assay: Covalent binding affinity to N-terminal His6-tagged human Pin1 expressed in Escherichia coli BL21 (DE3) assessed as increase in 292.1 Da molecular weight incubated for overnight by mass spectrometry
MDA-MB-468 [4] = assay: Inhibition of colony formation in human MDA-MB-468 cells at 0.63 to 10 uM incubated for 12 days with 48 hrs fresh compound replenishment by crystal violet staining based analysis; format: functional, cell-based; conditions: dose 0.63-10 µM, time 12.0 day
[5] = target: T1, Peptidyl-prolyl cis-trans isomerase NIMA-interacting 1; assay: Covalent binding affinity to Cys113 residue of N-terminal His6-tagged human Pin1 expressed in Escherichia coli BL21 (DE3) incubated for overnight followed by tryptic digestion for 16 hrs by HPLC-nESI MS/MS scan analysis
MDA-MB-468 [6] = assay: Antiproliferative activity against human MDA-MB-468 cells assessed as reduction in cell viability incubated for 3 days by CellTiter-Glo luminescent assay; format: functional, cell-based; conditions: MDA-MB-468, 72 h
[7] = target: T1, Peptidyl-prolyl cis-trans isomerase NIMA-interacting 1; assay: Inhibition of Pin1 in human MDA-MB-231 cells assessed as reduction in MCL-1 gene expression at 8 to 16 uM incubated for 24 hrs by qRT-PCR analysis; format: cell-based; conditions: dose 8-16 µM
MDA-MB-231 [8] = assay: Antiproliferative activity against human MDA-MB-231 cells assessed as reduction in cell viability incubated for 3 days by CellTiter-Glo luminescent assay; format: functional, cell-based; conditions: MDA-MB-231, 72 h
[9] = target: T1, Peptidyl-prolyl cis-trans isomerase NIMA-interacting 1; assay: Covalent binding affinity to N-terminal His6-tagged human Pin1 expressed in Escherichia coli BL21 (DE3) incubated for overnight by mass spectrometry
[10] = target: T1, Peptidyl-prolyl cis-trans isomerase NIMA-interacting 1; assay: Inhibition of Pin1 in human MDA-MB-231 cells assessed as reduction in C-MYC gene expression at 8 to 16 uM incubated for 24 hrs by qRT-PCR analysis; format: cell-based; conditions: dose 8-16 µM
[11] = target: T1, Peptidyl-prolyl cis-trans isomerase NIMA-interacting 1; assay: Displacement of 5-FITC-(Acp)-Bth-D-pThr-Pip-2-NaI-Q from N-terminal-GST-fused human Pin1 expressed in Escherichia coli BL21(DE3) at 20 to 50 uM incubated for 12 hrs by fluorescence polarization assay; conditions: dose 20-50 µM
MDA-MB-231 [12] = assay: Inhibition of colony formation in human MDA-MB-231 cells at 0.63 to 10 uM incubated for 12 days with 48 hrs fresh compound replenishment by crystal violet staining based analysis; format: functional, cell-based; conditions: dose 0.63-10 µM, time 12.0 day
[13] = target: T1, Peptidyl-prolyl cis-trans isomerase NIMA-interacting 1; assay: Inhibition of Pin1 in human MDA-MB-231 cells assessed as reduction in CCND1 gene expression at 8 to 16 uM incubated for 24 hrs by qRT-PCR analysis; format: cell-based; conditions: dose 8-16 µM
MDA-MB-231 [14] = assay: Downregulation of MCL-1 protein expression in human MDA-MB-231 cells transfected with PIN1 siRNA at 5 to 10 uM by western blot analysis; format: functional, cell-based; conditions: dose 5-10 µM
[15] = target: T1, Peptidyl-prolyl cis-trans isomerase NIMA-interacting 1; assay: Displacement of 5-FITC-(Acp)-Bth-D-pThr-Pip-2-NaI-Q from N-terminal-GST-fused human Pin1 expressed in Escherichia coli BL21(DE3) assessed as Kinact/Ki ratio incubated for 12 hrs by fluorescence polarization assay
[16] = target: T1, Peptidyl-prolyl cis-trans isomerase NIMA-interacting 1; assay: Inhibition of Pin1 in human MDA-MB-231 cells assessed as reduction in C-MYC gene expression incubated for 24 hrs by qRT-PCR analysis; format: cell-based; conditions: dose 4-8 µM
[17] = target: T1, Peptidyl-prolyl cis-trans isomerase NIMA-interacting 1; assay: Inhibition of Pin1 in human MDA-MB-231 cells assessed as reduction in MCL-1 gene expression incubated for 24 hrs by qRT-PCR analysis; format: cell-based; conditions: dose 4-8 µM
MDA-MB-231 [18] = assay: Downregulation of cyclin D1 protein expression in human MDA-MB-231 cells transfected with PIN1 siRNA at 5 to 10 uM by western blot analysis; format: functional, cell-based; conditions: dose 5-10 µM
[19] = target: T1, Peptidyl-prolyl cis-trans isomerase NIMA-interacting 1; assay: Inhibition of Pin1 in human MDA-MB-231 cells assessed as reduction in c-Myc level at 5 to 10 uM by western blot analysis; format: cell-based; conditions: dose 5-10 µM
[20] = target: T1, Peptidyl-prolyl cis-trans isomerase NIMA-interacting 1; assay: Inhibition of Pin1 in human MDA-MB-231 cells assessed as reduction in cyclin D1 level at 5 to 10 uM by western blot analysis; format: cell-based; conditions: dose 5-10 µM
[21] = target: T1, Peptidyl-prolyl cis-trans isomerase NIMA-interacting 1; assay: Displacement of 5-FITC-(Acp)-Bth-D-pThr-Pip-2-NaI-Q from N-terminal-GST-fused human Pin1 expressed in Escherichia coli BL21(DE3) assessed as maximum rate of inactivation incubated for 12 hrs by fluorescence polarization assay
MDA-MB-468 [22] = assay: Inhibition of colony formation in human MDA-MB-468 cells at 0.25 to 4 uM incubated for 12 days with 48 hrs fresh compound replenishment by crystal violet staining based analysis; format: functional, cell-based; conditions: dose 0.25-4 µM, time 12.0 day
MDA-MB-231 [23] = assay: Downregulation of MCL-1 gene expression in PIN-1 knockout human MDA-MB-231 cells at 4 to 8 uM incubated for 24 hrs by qRT-PCR analysis; format: functional, cell-based; conditions: dose 4-8 µM
MDA-MB-468 [24] = assay: Antiproliferative activity against human MDA-MB-468 cells assessed as reduction in cell viability incubated for 8 days with 48 hrs fresh compound replenishment by CellTiter-Glo luminescent assay; format: functional, cell-based; conditions: time 8.0 day
MDA-MB-231 [25] = assay: Downregulation of CCND1 gene expression in PIN-1 knockout human MDA-MB-231 cells at 4 to 8 uM incubated for 24 hrs by qRT-PCR analysis; format: functional, cell-based; conditions: dose 4-8 µM
[26] = target: T1, Peptidyl-prolyl cis-trans isomerase NIMA-interacting 1; assay: Inhibition of Pin1 in human MDA-MB-231 cells assessed as induction of Pin1 degradation incubated for 16 hrs by immunoblot analysis; format: cell-based; conditions: dose 2.5-15 µM
MDA-MB-231 [27] = assay: Downregulation of C-MYC gene expression in PIN-1 knockout human MDA-MB-231 cells at 4 to 8 uM incubated for 24 hrs by qRT-PCR analysis; format: functional, cell-based; conditions: dose 4-8 µM
MDA-MB-231 [28] = assay: Inhibition of colony formation in human MDA-MB-231 cells at 0.25 to 4 uM incubated for 12 days with 48 hrs fresh compound replenishment by crystal violet staining based analysis; format: functional, cell-based; conditions: dose 0.25-4 µM, time 12.0 day
[29] = target: T1, Peptidyl-prolyl cis-trans isomerase NIMA-interacting 1; assay: Inhibition of Pin1 in human MDA-MB-231 cells assessed as reduction in CCND1 gene expression incubated for 24 hrs by qRT-PCR analysis; format: cell-based; conditions: dose 4-8 µM
[30] = target: T1, Peptidyl-prolyl cis-trans isomerase NIMA-interacting 1; assay: Inhibition of Pin1 in human MDA-MB-231 cells assessed as reduction in MCL-1 level at 5 to 10 uM by western blot analysis; format: cell-based; conditions: dose 5-10 µM
[31] = test system: Peptidyl-prolyl cis-trans isomerase NIMA-interacting 1 (Homo sapiens), Q13526 [C113A]; assay: Displacement of 5-FITC-(Acp)-Bth-D-pThr-Pip-2-NaI-Q from human Pin1 C113A mutant expressed in Escherichia coli BL21(DE3) incubated for 12 hrs by fluorescence polarization assay
[32] = target: T1, Peptidyl-prolyl cis-trans isomerase NIMA-interacting 1; assay: Covalent binding affinity to N-terminal His6-tagged human Pin1 expressed in Escherichia coli BL21 (DE3) assessed as increase in 418.16 Da molecular weight incubated for overnight by mass spectrometry
[33] = test system: Peptidyl-prolyl cis-trans isomerase NIMA-interacting 1 (Homo sapiens), Q13526 [C113A]; assay: Covalent binding affinity to N-terminal His6-tagged human Pin1 C113A mutant expressed in Escherichia coli BL21(DE3) at compound:protein ratio of 3:1 to 5:1 incubated for overnight by mass spectrometry
MDA-MB-231 [34] = assay: Downregulation of c-Myc protein expression in human MDA-MB-231 cells transfected with PIN1 siRNA at 5 to 10 uM by western blot analysis; format: functional, cell-based; conditions: dose 5-10 µM
Homo sapiens = organism: Homo sapiens; assay: Displacement of 5-FITC-(Acp)-Bth-D-pThr-Pip-2-NaI-Q from human Pin1 C57A mutant expressed in Escherichia coli BL21(DE3) incubated for 12 hrs by fluorescence polarization assay

Ratio IC50 [1]: 0.8
IC50 [2]: 1060 nM
SMILES: O=C(CCl)N1CCC2(CC1)SCC(=O)N2CCc1ccc(-c2ccccc2)o1

Ratio IC50 [1]: 0.29
IC50 [2]: 380 nM
SMILES: O=C(CCl)N1CCC2(CC1)SCC(=O)N2Cc1ccc(-c2ccc3ccccc3c2)o1

Activity [3]: Active
Activity [5]: Active
IC50 (MDA-MB-468 [6]): 8600 nM
inhibition [7]: Active
IC50 (MDA-MB-231 [8]): 12800 nM
IC50 [2]: 1330 nM
Activity [9]: 100%
inhibition [10]: Active
inhibition [11]: > 50%
inhibition [13]: Active
SMILES: O=C(CCl)N1CCC2(CC1)SCC(=O)N2Cc1ccco1
inhibition (MDA-MB-468 [4]): Active
inhibition (MDA-MB-231 [12]): Active

Ratio IC50 [1]: > 10
IC50 [2]: > 100000 nM
SMILES: CC(Cl)C(=O)N1CCC2(CC1)SCC(=O)N2Cc1ccc(-c2ccccc2)o1 (centres undefined)

Ratio IC50 [1]: 0.46
IC50 [2]: 610 nM
SMILES: O=C(CCl)N1CCC2(CC1)SCC(=O)N2Cc1ccc(Br)o1

inhibition [11]: > 50%
SMILES: O=C(CCl)N1CCC2(CC1)SCC(=O)N2Cc1ccccc1

Ratio [15]: 27.1 M⁻¹ s⁻¹
Activity [5]: Active
IC50 (MDA-MB-468 [6]): 1900 nM
inhibition [16]: Dose-Dependent Effect
inhibition [17]: Dose-Dependent Effect
inhibition [19]: Active
IC50 (MDA-MB-231 [8]): 2800 nM
inhibition [20]: Active
Ratio IC50 [1]: 0.05
IC50 [2]: 67 nM
Activity [9]: 100%
Kinact [21]: 0.058 min⁻¹
inhibition [26]: Dose-Dependent Effect
inhibition [29]: Dose-Dependent Effect
inhibition [30]: Active
inhibition [31]: inactive
Activity [32]: Active
Activity [33]: inactive
inhibition (Homo sapiens): Active
SMILES: O=C(CCl)N1CCC2(CC1)SCC(=O)N2Cc1ccc(-c2cccc3ccccc23)o1
inhibition (MDA-MB-231 [14]): inactive
inhibition (MDA-MB-231 [18]): inactive
inhibition (MDA-MB-468 [22]): Active
inhibition (MDA-MB-231 [23]): inactive
Activity (MDA-MB-468 [24]): Active
inhibition (MDA-MB-231 [25]): inactive
inhibition (MDA-MB-231 [27]): inactive
inhibition (MDA-MB-231 [28]): Active
inhibition (MDA-MB-231 [34]): inactive

Ratio IC50 [1]: > 10
IC50 [2]: > 100000 nM
SMILES: C=CC(=O)N1CCC2(CC1)SCC(=O)N2Cc1ccc(-c2ccccc2)o1

Ratio IC50 [1]: > 10
IC50 [2]: > 100000 nM
SMILES: CC(=O)N1CCC2(CC1)SCC(=O)N2Cc1ccco1

Ratio IC50 [1]: 0.42
IC50 [2]: 560 nM
SMILES: O=C(CCl)N1CCC2(CC1)SCC(=O)N2Cc1ccc(Cl)o1

Ratio IC50 [1]: 0.33
IC50 [2]: 440 nM
SMILES: N#Cc1ccc(-c2ccc(CN3C(=O)CSC34CCN(C(=O)CCl)CC4)o2)cc1

Ratio IC50 [1]: > 10
IC50 [2]: > 100000 nM
SMILES: CC(=O)N1CCC2(CC1)SCC(=O)N2Cc1ccc(-c2cccc3ccccc23)o1

Ratio IC50 [1]: 0.2
IC50 [2]: 270 nM
SMILES: Cc1ccc(-c2ccc(CN3C(=O)CSC34CCN(C(=O)CCl)CC4)o2)cc1

Ratio IC50 [1]: 0.27
IC50 [2]: 360 nM
SMILES: CS(=O)(=O)c1ccc(-c2ccc(CN3C(=O)CSC34CCN(C(=O)CCl)CC4)o2)cc1

Ratio IC50 [1]: 1
IC50 [2]: 1320 nM
SMILES: O=C(CCl)N1CCC2(CC1)SCC(=O)N2Cc1ccc(-c2ccc(-c3ccccc3)cc2)o1

Ratio IC50 [1]: 0.2
IC50 [2]: 260 nM
SMILES: O=C(CCl)N1CCC2(CC1)SCC(=O)N2Cc1ccc(-c2ccccc2)o1

Ratio IC50 [1]: 0.19
IC50 [2]: 250 nM
SMILES: COc1ccc(-c2ccc(CN3C(=O)CSC34CCN(C(=O)CCl)CC4)o2)cc1

Ratio IC50 [1]: 0.54
IC50 [2]: 720 nM
SMILES: O=C(CCl)N1CCC2(CC1)SCC(=O)N2Cc1ccc(-c2ccc(C(F)(F)F)cc2)o1

inhibition [11]: > 50%
SMILES: Cc1cccc(N2C(=O)CSC23CCN(C(=O)CCl)CC3)c1

inhibition [11]: > 50%
SMILES: O=C(CCl)N1CCC2(CC1)SCC(=O)N2c1ccc(Cl)cc1

inhibition [11]: > 50%
SMILES: Cc1ccc(N2C(=O)CSC23CCN(C(=O)CCl)CC3)cc1
